Columns and labels:
Format in all cases: cell-based, human
[1] = tested on: micro-engineered bone marrow (MEBM) model; assay: Mobilization of blood cells from the MEBM model on vascular perfusion with IL-8 or AMD3100
From the text: When hormones, cytokines, and other soluble signals produced by peripheral tissues reach the bone marrow, they can induce mature blood cells in the hematopoietic niche to transmigrate across the sinusoidal endothelium and enter the bloodstream. This regulated release of blood cells into circulation is termed mobilization, which represents a critical step in immunity and continuous cellular replenishment required for homeostasis of the hematopoietic system. Having validated the transcriptomic signatures of mature hematopoietic cells in the MEBM model and their capacity for physiologically relevant cell-cell signaling, the MEBM model was evaluated to determine whether it could reconstitute the complex process of mobilization in the integrated context of the vascularized hematopoietic niche. The study was specifically focused on investigating the ability of mature neutrophils differentiated from HSCs in the MEBM model to replicate rapid release of their in vivo counterparts from the bone marrow reserve during immune responses to inflammatory insults. To simulate this situation, the vasculature of the micro-engineered niche was perfused with culture media containing physiologically relevant concentrations of interleukin-8 (IL-8) during infection (5,000 μg/ml), a systemic inflammatory cytokine known to stimulate neutrophil release.
In control experiments without IL-8, the vast majority of mature neutrophils identified by their expression of CD66b were retained in the perivascular space. […] Intravascular translocation of these cells occurred rapidly, within one hour of treatment, consistent with the time scale over which neutrophils are mobilized from the native marrow in an inflammatory setting.
To capture the process of mobilization under the dynamic conditions of continuous vascular perfusion, a time-lapse imaging of neutrophils in the micro-engineered niche was performed at physiological flow rates (10 μl/min). In the IL-8-treated replicates, neutrophils were distributed in the perivascular region initially, but upon cytokine stimulation, a large fraction of these cells entered the neighboring blood vessels in less than 20 minutes. The intravasated cells were then quickly cleared from the observation area in the direction of flow. The cellular content of effluent collected from these devices was composed primarily of non-adherent cells characterized by multilobular nuclei and robust expression of CD66b, confirming the release of terminally differentiated mature neutrophils. During the same time period only a few neutrophils were mobilized in the control group.
The MEBM model was also responsive to AMD3100 (Plerixafor), a CXCR4 antagonist clinically used for mobilizing HSCs and other hematopoietic cells from the bone marrow for autologous transplantation.
Statistically analyses described above were performed as follows. Mobilization of neutrophils in response to IL-8 and AMD3100 was assessed by ordinary one-way ANOVA, with Dunnett correction employed for multiple comparisons. Marker expression (CD15 and CD66b) as compared between AMD3100- and IL-8-mobilized groups was tested by unpaired t-test. Cell populations following irradiation were compared using 2-way ANOVA with multiple comparisons testing adjusted by Dunnett correction. Mobilization following infection was compared between infected and non-infected groups by unpaired t-test. Quantities of neutrophils at inflow and outflow position were compared using Welch's t-test to account for unequal variances in the data. Comparisons between multiplexed Luminex cytokine assays were performed using multiple t-tests, corrected by the Holm-Sidak method.

[2] = tested on: micro-engineered bone marrow (MEBM) model; assay: Stimulation of erythropoiesis in the MEBM model with erythropoietin; conditions: Erythropoiesis-Specific Medium (EPO 1 ng/ml)
Protocol: Having confirmed the vascularization and HSC colonization of the micro-engineered niche, the potential to deploy the MEBM model to reconstitute multilineage hematopoiesis was investigated. Considering that hematopoiesis in vivo relies on extrinsic cues to control the fate of HSCs, the hematopoietic investigation was conducted by the addition of soluble factors known to drive lineage differentiation. First, the MEBM model was treated with erythropoietin (EPO) (see “Erythropoiesis-Specific Medium” of Table 1) to stimulate erythropoiesis. […] Following this phenotypic organization, the MEBM model produced a substantial number of round, erythroid cells that were distinguishable by their red color and expression of transferrin receptor (i.e., CD71) and glycophorin A. The micro-engineered niche also supported the differentiation of HSCs into myeloid cells. Stimulation of the MEBM model with myelopoietic media (see Table 1) for 21 days produced a marrow construct densely packed with cells of myeloid lineages, most of which were situated proximate the vasculature. A significant number of the cells were terminally differentiated mature neutrophils as identified by their multisegmented nuclei, intracellular secretory granules, and surface marker expression (CD15+/CD66b+).

mobilized neutrophils = assay: Boyden chamber migration assay: chemotaxis of mobilized neutrophils in a gradient of IL-8; conditions: over a period of an hour
Protocol: For further investigation, a Boyden chamber migration assay was conducted to measure chemotaxis of mobilized neutrophils in a gradient of IL-8 as a representative endpoint of their functional capacity. […] It was noted that the transmigrated cells in the lower chamber clumped together to form multicellular aggregates, reminiscent of neutrophil swarming in vivo that plays an important functional role in antimicrobial activities of neutrophils.

[3] = image cytometry of CD15 and CD66b staining, cells released by AMD3100

Compound: c1cc(CN2CCCNCCNCCCNCC2)ccc1CN1CCCNCCNCCCNCC1 [AMD3100, Plerixafor, reference compound]
- rate of mobilization compared with the IL-8-treated model ([1]; AMD3100 25 μg/ml): lower than that in the IL-8-treated model
- neutrophils among the released cells of myeloid lineage [1, 3]: 56%
- released cells of myeloid lineage [1, 3]: approximately 65%
- increase in the rate at which cells were released from the device ([1]; perfused with clinical dose 25 μg/ml, in comparison to untreated controls): more than fivefold

Compound: EPO: soluble factor added to stimulate erythropoiesis
- effect of EPO addition on the micro-engineered niche [2]: formation of multicellular complexes

Compound: IL-8: a systemic inflammatory cytokine known to stimulate neutrophil release
- cells that moved across the membrane (mobilized neutrophils): ~80%
- mature neutrophils in the population of released cells ([1]; IL-8-induced mobilization, image cytometry): 76%
- egress of CD66b+ cells from the stromal compartment into the vascular lumen ([1]; IL-8 infused through the vasculature (5,000 μg/ml), compared with control without IL-8): substantial egress of CD66b+ cells
- time until a large fraction of neutrophils entered the neighboring blood vessels ([1]; time-lapse imaging, continuous vascular perfusion at 10 μl/min, upon cytokine stimulation): less than 20 minutes

— patent publication US20250304892A1, “APPARATUS, SYSTEM, AND METHOD FOR FORMING A PERTURBABLE BONE MARROW MODEL WITHIN A THREE-DIMENSIONAL MICROPHYSIOLOGICAL SYSTEM” (The Trustees of the University of Pennsylvania, priority 2022, published 2025)
